Data published in patent publication US11065253B2, “Arylquinazolines” (Merck Patent GmbH, priority 2013, dated 2021).
Like-named read-outs stand apart in the source and are kept apart here. Blank lines part the entries; values can stand above or below the molecule they belong to.

System: phospho-serine 2056 DNA-PK in HCT116 cells
Assay: DNA-PK phosphorylation at serine 2056 (cellular), ELISA in bleomycin-treated HCT116 cells
Assay type: cell-based
Conditions: read-out: IC50 pDNA-PK
Method in brief: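 Test compounds and bleomycin (10 μM) are added to adherent HCT116 cells for 6 h. Detection uses an HRP-based chemiluminescent ELISA, with phospho-DNA-PK signals standardised to total protein.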

[1] = Homo sapiens, HCT-116, phospho-serine 2056 DNA-PK, bleomycin-treated HCT116 cells
[2] = cellular DNA-PK phosphorylation at serine 2056, HCT116 cells
[3] = cellular, HCT116 cells, 10 μM bleomycin, six hours
[4] = Homo sapiens, HCT-116, 6 h, cellular, HCT116 cells, 10 μM bleomycin, six hours
[5] = Homo sapiens, HCT-116, phospho-serine 2056 DNA-PK, bleomycin-treated HCT116 cells, class symbols A-D
[6] = Homo sapiens, HCT-116, cellular DNA-PK phosphorylation at serine 2056, HCT116 cells

IC50 [1]: 5 to 10 µM
Structure (SMILES): NC(=O)C(c1ccc(F)c(-c2ncnc3cc(N4CCOCC4)ccc23)c1)c1nnc(Cl)c2sccc12 (stereo not drawn) [Example 291, 2-(7-Chlorothieno-[2,3-d}pyridazin-4-yl)-2-[4-fluoro-3-(7-morpholin-4-yl-quinazolin-4-yl)-phenyl]acetamide]

IC50 [3]: < 0.5 µM
Structure (SMILES): COc1nnc(Cl)cc1C(O)c1ccc(F)c(-c2ncnc3cc(N4CCOCC4)ccc23)c1 (stereo not drawn) [Example 9]

IC50 [4]: 5 to 10 µM
Structure (SMILES): CN(C)c1ccc(C(O)c2ccc(F)c(-c3ncnc4cc(N5CCOCC5)ccc34)c2)nn1 (stereo not drawn) [Example 68, (6-Dimethylamino-pyridazin-3-yl)-[4-fluoro-3-(7-morpholin-4-yl-quinazolin-4-yl)phenyl]-methanol]

IC50 [5]: 0.5 to 5 µM
Structure (SMILES): CCOc1ccc(C(O)c2ccc(F)c(-c3ncnc4cc(N5CCOCC5)ccc34)c2)nn1 (stereo not drawn) [Example 134, (6-Ethoxy-pyridazin-3-yl)-[4-fluoro-3-(7-morpholin-4-yl-quinazolin-4-yl)-phenyl] methanol]

IC50 [5]: 10 to 30 µM
Structure (SMILES): Cn1cc(C(O)c2ccc(F)c(-c3ncnc4cc(N5CCOCC5)ccc34)c2)cn1 (stereo not drawn) [Example 191, [4-Fluoro-3-(7-morpholin-4-yl-quinazolin-4-yl)-phenyl]-(1-methyl-1H-pyrazol-4-yl)-methanol]

IC50 [5]: 10 to 30 µM
Structure (SMILES): COc1ccc(C(C)(O)c2cc(-c3ncnc4cc(N5CCOCC5)ccc34)c(F)cc2Cl)nn1 (stereo not drawn) [Example 125, 1-[2-Chloro-4-fluoro-5-(7-morpholin-4-yl-quinazolin-4-yl)-phenyl]-1-(6-methoxy-pyridazin-3-yl)-ethanol]

IC50 [6]: < 0.5 µM
Structure (SMILES): OC(c1ccc(F)c(-c2ncnc3cc(N4CCOCC4)ccc23)c1)c1ncnc2ccoc12 (stereo not drawn) [Example 442, [4-Fluoro-3-(7-morpholin-4-yl-quinazolin-4-yl)-phenyl]furo[3,2-d}-pyrimidin-4-yl-methanol]

IC50 [4]: 0.5 to 5 µM
Structure (SMILES): COc1ccc([C@H](O)c2ccc(F)c(-c3ncnc4cc(N5CCOCC5)ccc34)c2)nn1 [Example 71, (R)-[4-Fluoro-3-(7-morpholin-4-yl-quinazolin-4-yl)phenyl]-(6-methoxypyridazin-3-yl)methanol]

IC50 [3]: < 0.5 µM
Structure (SMILES): Cn1nc(C(O)c2cc(-c3ncnc4cc(N5CCOCC5)ccc34)c(F)cc2Cl)ccc1=O (stereo not drawn) [Example 45, 6-{[2-Chloro-4-fluoro-5-(7-morpholin-4-yl-quinazolin-4-yl)phenyl]-hydroxymethyl}-2-methyl-2H-pyridazin-3-one]

IC50 [1]: 0.5 to 5 µM
Structure (SMILES): NC(=O)C(c1ccc(F)c(-c2ncnc3cc(N4CCOCC4)ccc23)c1)c1cncc(F)c1Cl (stereo not drawn) [Example 322, 2-(4-Chloro-5-fluoro-pyridin-3-yl)-2-[4-fluoro-3-(7-morpholin-4-yl-quinazolin-4-yl)-phenyl]acetamide]

IC50 [1]: 10 to 30 µM
Structure (SMILES): COc1ccc(C(C(N)=O)c2cc(-c3ncnc4cc(N5CCOCC5)ccc34)ccc2Cl)nn1 (stereo not drawn) [Example 310, 2-[2-Chloro-5-(7-morpholin-4-yl-quinazolin-4-yl)-phenyl]-2-(6-methoxy-pyridazin-3-yl)acetamide]

IC50 [1]: 0.5 to 5 µM
Structure (SMILES): O=c1[nH]nc(C(O)c2ccc(F)c(-c3ncnc4cc(N5CCOCC5)ccc34)c2)c2sccc12 (stereo not drawn) [Example 337, 7-[[4-Fluoro-3-(7-morpholino-quinazolin-4-yl)-phenyl]hydroxy-methyl]-5H-thieno-[2,3-d}pyridazin-4-one]

IC50 [6]: 10 to 30 µM
Structure (SMILES): CN1CCN(c2nccnc2C(O)c2ccc(F)c(-c3ncnc4cc(N5CCOCC5)ccc34)c2)C1=O (stereo not drawn) [Example 424, 1-(3-{[4-Fluoro-3-(7-morpholin-4-yl-quinazolin-4-yl)-phenyl]hydroxy-methyl}pyrazin-2-yl)-3-methyl-imidazolidin-2-one]

IC50 [4]: 0.5 to 5 µM
Structure (SMILES): Cc1ccc(C(O)c2ccc(F)c(-c3ncnc4cc(N5CCOCC5)ccc34)c2)nn1 (stereo not drawn) [Example 70, [4-Fluoro-3-(7-morpholin-4-yl-quinazolin-4-yl)phenyl]-(6-methylpyridazin-3-yl)methanol]

IC50 [5]: 0.5 to 5 µM
Structure (SMILES): Cn1nc(C(O)c2cc(-c3ncnc4cc(N5CCOCC5)ccc34)c(F)cc2F)ccc1=O (stereo not drawn) [Example 219, 6-{[2,4-Difluoro-5-(7-morpholin-4-yl-quinazolin-4-yl)-phenyl]hydroxy-methyl}-2-methyl-2H-pyridazin-3-one]

IC50 [4]: < 0.5 µM
Structure (SMILES): OC(c1ccc(F)c(-c2ncnc3cc(N4CCOCC4)ccc23)c1)c1ncccc1OC(F)F (stereo not drawn) [Example 81, (3-Difluoromethoxy-pyridin-2-yl)-[4-fluoro-3-(7-morpholin-4-yl-quinazolin-4-yl)-phenyl]methanol]

IC50 [6]: < 0.5 µM
Structure (SMILES): COc1nccnc1C(O)c1cc(-c2ncnc3cc(N4CCOCC4)ccc23)c(F)cc1Cl (stereo not drawn) [Example 468, [2-Chloro-4-fluoro-5-(7-morpholin-4-yl-quinazolin-4-yl)-phenyl]-(3-methoxy-pyrazin-2-yl)-methanol]

More lines, now with the values behind:

Structure (SMILES): COc1nccnc1[C@@H](O)c1cc(-c2ncnc3cc(N4CCOCC4)ccc23)c(F)cc1Cl [Example 456, (S)-[2-Chloro-4-fluoro-5-(7-morpholin-4-yl-quinazolin-4-yl)-phenyl]-(3-methoxy-pyrazin-2-yl)-methanol]
IC50 [2]: < 0.5 µM

Structure (SMILES): NC(=O)C(c1cc(-c2ncnc3cc(N4CCOCC4)ccc23)c(F)cc1F)c1nccn2cccc12 (stereo not drawn) [Example 348, 2-[2,4-Difluoro-5-(7-morpholin-4-yl-quinazolin-4-yl)-phenyl]-2-pyrrolo-[1,2-a]pyrazin-1-yl-acetamide]
IC50 [1]: 0.5 to 5 µM

Structure (SMILES): OC(c1ccc(F)c(-c2ncnc3cc(N4CCOCC4)ncc23)c1)c1nccs1 (stereo not drawn) [Example 140, [4-Fluoro-3-(7-morpholin-4-yl-pyrido[4,3-d}-pyrimidin-4-yl)-phenyl]thiazol-2-yl-methanol]
IC50 [5]: 10 to 30 µM

Structure (SMILES): Cn1nccc1C(O)c1ccc(F)c(-c2nc(Cl)nc3cc(N4CCOCC4)ccc23)c1 (stereo not drawn) [Example 214, [3-(2-Chloro-7-morpholin-4-yl-quinazolin-4-yl)-4-fluoro-phenyl]-(2-methyl-2H-pyrazol-3-yl)-methanol]
IC50 [4]: 10 to 30 µM

Structure (SMILES): NC(=O)C(c1cccnc1)c1cc(-c2ncnc3cc(N4CCOCC4)ccc23)c(F)cc1F (stereo not drawn) [Example 294, 2-[2,4-Difluoro-5-(7-morpholin-4-yl-quinazolin-4-yl)-phenyl]-2-pyridin-3-ylacetamide]
IC50 [1]: 10 to 30 µM

Structure (SMILES): OC(c1cc(-c2ncnc3cc(N4CCOCC4)ccc23)c(F)cc1Cl)c1nccn2cccc12 (stereo not drawn) [Example 359, [2-Chloro-4-fluoro-5-(7-morpholin-4-yl-quinazolin-4-yl)-phenyl]pyrrolo[1,2-a]-pyrazin-1-ylmethanol]
IC50 [1]: < 0.5 µM

Structure (SMILES): OC(c1cc(F)c(F)c(-c2ncnc3cc(N4CCOCC4)ccc23)c1)c1nccs1 (stereo not drawn) [Example 178, [3,4-Difluoro-5-(7-morpholin-4-yl-quinazolin-4-yl)-phenyl]thiazol-2-yl-methanol]
IC50 (phospho-serine 2056 DNA-PK, bleomycin-treated HCT116 cells, class symbols A-D): 0.5 to 5 µM

Structure (SMILES): Cn1nc(C(C(N)=O)c2cc(-c3ncnc4cc(N5CCOCC5)ccc34)c(F)cc2Cl)ccc1=O (stereo not drawn) [Example 311, 2-[2-Chloro-4-fluoro-5-(7-morpholin-4-yl-quinazolin-4-yl)-phenyl]-2-(1-methyl-6-oxo-1,6-dihydro-pyridazin-3-yl)-acetamide]
IC50 [1]: 10 to 30 µM

Structure (SMILES): COc1ccc(C(O)(c2cc(-c3ncnc4cc(N5CCOCC5)ccc34)c(F)cc2Cl)C(F)F)nn1 (stereo not drawn) [Example 123, 1-[2-Chloro-4-fluoro-5-(7-morpholin-4-yl-quinazolin-4-yl)-phenyl]-2,2-difluoro-1-(6-methoxy-pyridazin-3-yl)-ethanol]
IC50 [5]: 10 to 30 µM

Structure (SMILES): Nc1nccnc1C(O)c1cc(-c2ncnc3cc(N4CCOCC4)ccc23)c(F)cc1Cl (stereo not drawn) [Example 117, (3-Amino-pyrazin-2-yl)-[2-chloro-4-fluoro-5-(7-morpholin-4-yl-quinazolin-4-yl)-phenyl]methanol]
IC50 [5]: 0.5 to 5 µM

Structure (SMILES): OC(c1cc(-c2ncnc3cc(N4CCOCC4)ccc23)ccc1Cl)c1nccn2cccc12 (stereo not drawn) [Example 361, [2-Chloro-5-(7-morpholin-4-yl-quinazolin-4-yl)-phenyl]pyrrolo[1,2-a]-pyrazin-1-ylmethanol]
IC50 [1]: 0.5 to 5 µM

Structure (SMILES): COc1nccnc1C(C(N)=O)c1cc(-c2ncnc3cc(N4CCOCC4)ccc23)ccc1Cl (stereo not drawn) [Example 304, 2-[2-Chloro-5-(7-morpholin-4-yl-quinazolin-4-yl)-phenyl]-2-(3-methoxy-pyrazin-2-yl)acetamide]
IC50 [1]: 5 to 10 µM

Structure (SMILES): OC(c1cc(-c2ncnc3cc(N4CCOCC4)ccc23)c(F)cc1F)c1nccnc1OC(F)F (stereo not drawn) [Example 449, (3-Difluoromethoxy-pyrazin-2-yl)-[2,4-difluoro-5-(7-morpholin-4-yl-quinazolin-4-yl)-phenyl]methanol]
IC50 [2]: 0.5 to 5 µM

Structure (SMILES): OCc1csc(C(O)c2cc(-c3ncnc4cc(N5CCOCC5)ncc34)c(F)cc2Cl)n1 (stereo not drawn) [Example 141, [2-Chloro-4-fluoro-5-(7-morpholin-4-yl-pyrido[4,3-d}-pyrimidin-4-yl)-phenyl]-(4-hydroxymethyl-thiazol-2-yl)-methanol]
IC50 [5]: 10 to 30 µM

Structure (SMILES): [2H]C1([2H])OC([2H])([2H])C([2H])([2H])N(c2ccc3c(-c4cc(C(O)c5nccnc5OC)c(Cl)cc4F)ncnc3c2)C1([2H])[2H] (stereo not drawn) [Example 242, [2-Chloro-4-fluoro-5-[7-(2,2,3,3,5,5,6,6-octadeuterio-morpholin-4-yl)quinazolin-4-yl]phenyl]-(3-methoxypyrazin-2-yl)methanol]
IC50 (phospho-serine 2056 DNA-PK, bleomycin-treated HCT116 cells): < 0.5 µM

Structure (SMILES): Cc1nccnc1C(O)c1cc(-c2ncnc3cc(N4CCOCC4)ccc23)c(F)cc1F (stereo not drawn) [Example 84, [2,4-Difluoro-5-(7-morpholin-4-yl-quinazolin-4-yl)-phenyl]-(3-methyl-pyrazin-2-yl)methanol]
IC50 [4]: < 0.5 µM
